Reference: patent US20110098283A1, “3-CINNOLINECARBOXAMIDE DERIVATIVES AND THEIR USE FOR TREATING CANCER” (ASTRAZENECA AB, priority 2007, published 2011)
pIC50: −log10 of the molar value.

Molecular target: T1, CSF-1R (His-tagged kinase domain, amino acids 568-912) (Homo sapiens, UniProt P07333)
T1 construct: The His-tagged kinase domain of CSF-1R (i.e., amino acids 568-912, GeneBank ID NM_005211); His; made in house; host or cells: baculovirus infected SF+Express insect cells
T1 sequence (P07333 568-912): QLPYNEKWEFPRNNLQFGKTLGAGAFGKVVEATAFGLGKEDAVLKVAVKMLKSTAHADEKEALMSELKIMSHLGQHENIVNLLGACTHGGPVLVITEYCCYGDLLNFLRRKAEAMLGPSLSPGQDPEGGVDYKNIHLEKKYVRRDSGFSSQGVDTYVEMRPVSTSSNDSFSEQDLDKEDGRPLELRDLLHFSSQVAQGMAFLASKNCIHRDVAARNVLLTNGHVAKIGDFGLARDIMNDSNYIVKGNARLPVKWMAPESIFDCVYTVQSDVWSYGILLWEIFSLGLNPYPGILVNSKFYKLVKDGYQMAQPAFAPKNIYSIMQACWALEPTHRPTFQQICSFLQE
Assay: Assay 1: CSF-1R in vitro AlphaScreen Assay
Type: biochemical
Conditions: phosphorylation of pEY substrate; 0.57 nM CSF-1R, 90 μM ATP
Experimental: Assay 1: CSF-1R in vitro AlphaScreen Assay
Activity of purified CSF-1R was determined in vitro using an Amplified Luminescent Proximity Homogeneous Assay (ALPHA) (Perkin Elmer), which measures phosphorylation of the CSF-1R substrate, biotinylated poly-glutamine-tyrosine peptide (pEY-HTRF CisBio 61GT0BLD), as described below.
The phosphorylation of the CSF-1R substrate in the presence and absence of the compound of interest was determined. […] Plates were incubated at 25° C. for 18 hours in the dark. Phosphorylated substrate was detected by an EnVision plate reader (Perkin Elmer) 680 nm excitation, 520-620 nm emission. Data was graphed and IC50s calculated using Excel Fit (Microsoft).

Compound | pIC50
COc1cc2nnc(C(N)=O)c(Nc3cccc(Cl)c3Cl)c2cc1OC [Example 5, 4-[(2,3-Dichlorophenyl)amino]-6,7-dimethoxycinnoline-3-carboxamide] | > 8.52
CCOc1cc2nnc(C(N)=O)c(Nc3cc(C)ccc3F)c2cc1N1CCN(C)CC1 [Example 6, 7-Ethoxy-4-[(2-fluoro-5-methylphenyl)amino]-6-(4-methylpiperazin-1-yl)cinnoline-3-carboxamide] | > 8.52
CCOc1cc2nnc(C(N)=O)c(Nc3cccc(Cl)c3Cl)c2cc1N1CCN(C)CC1 [Example 8, 4-[(2,3-Dichlorophenyl)amino]-7-ethoxy-6-(4-methylpiperazin-1-yl)cinnoline-3-carboxamide] | 8.52
CCOc1cc2nnc(C(N)=O)c(Nc3ccc(F)cc3F)c2cc1N1CCN(C(C)C)CC1 [Example 11, 4-[(2,4-Difluorophenyl)amino]-7-ethoxy-6-(4-propan-2-ylpiperazin-1-yl)cinnoline-3-carboxamide] | 8.10
CCOc1cc2nnc(C(N)=O)c(Nc3ccc(F)cc3F)c2cc1N1CCN(CC)CC1 [Example 12, 4-[(2,4-Difluorophenyl)amino]-7-ethoxy-6-(4-ethylpiperazin-1-yl)cinnoline-3-carboxamide] | 8.30
COc1cc2nnc(C(N)=O)c(Nc3cccc(Cl)c3F)c2cc1N1CCN(C)CC1 [Example 14, 4-[(3-Chloro-2-fluorophenyl)amino]-7-methoxy-6-(4-methylpiperazin-1-yl)cinnoline-3-carboxamide] | > 8.52
COc1cc2nnc(C(N)=O)c(Nc3ccc(C)cc3F)c2cc1N1CCN(C(C)(C)C)CC1 [Example 16, 6-(4-tert-Butylpiperazin-1-yl)-4-[(2-fluoro-4-methylphenyl)amino]-7-methoxycinnoline-3-carboxamide] | 8.05
COCCOc1cc2nnc(C(N)=O)c(Nc3ccc(F)cc3F)c2cc1N1CCN(C)CC1 [Example 17, 4-[(2,4-Difluorophenyl)amino]-7-(2-methoxyethoxy)-6-(4-methylpiperazin-1-yl)cinnoline-3-carboxamide] | > 8.52
COCCOc1cc2nnc(C(N)=O)c(Nc3ccc(C)cc3F)c2cc1N1CCN(C)CC1 [Example 18, 4-[(2-Fluoro-4-methylphenyl)amino]-7-(2-methoxyethoxy)-6-(4-methylpiperazin-1-yl)cinnoline-3-carboxamide] | > 8.52
COc1cc2nnc(C(N)=O)c(Nc3cc(C)ccc3F)c2cc1N1CCN(C)CC1 [Example 22, 4-[(2-Fluoro-5-methylphenyl)amino]-7-methoxy-6-(4-methylpiperazin-1-yl)cinnoline-3-carboxamide] | > 8.52
COc1cc2nnc(C(N)=O)c(Nc3cc(C)ccc3F)c2cc1N1CCN(C(C)C)CC1 [Example 23, 4-[(2-Fluoro-5-methylphenyl)amino]-6-(4-isopropylpiperazin-1-yl)-7-methoxycinnoline-3-carboxamide] | > 8.30
CCOc1cc2nnc(C(N)=O)c(Nc3ccc(C)cc3F)c2cc1N1CCCN(C)CC1 [Example 27, 7-Ethoxy-4-[(2-fluoro-4-methylphenyl)amino]-6-(4-methyl-1,4-diazepan-1-yl)cinnoline-3-carboxamide] | > 8.52

Second part, the compound after the results:

pIC50 | Compound
> 8.52 | COc1cc2nnc(C(N)=O)c(Nc3ccc(F)cc3F)c2cc1OC [Example 1, 4-[(2,4-Difluorophenyl)amino]-6,7-dimethoxycinnoline-3-carboxamide]
8.10 | COc1cc2nnc(C(N)=O)c(Nc3ccc(C)cc3F)c2cc1OC [Example 2, 4-[(2-Fluoro-4-methylphenyl)amino]-6,7-dimethoxycinnoline-3-carboxamide]
8.30 | COc1cc2nnc(C(N)=O)c(Nc3cc(C)ccc3F)c2cc1OC [Example 4, 4-[(2-Fluoro-5-methylphenyl)amino]-6,7-dimethoxycinnoline-3-carboxamide]
> 7.82 | CCOc1cc2nnc(C(N)=O)c(Nc3cccc(Cl)c3F)c2cc1N1CCN(C)CC1 [Example 9, 4-[(3-Chloro-2-fluoro-phenyl)amino]-7-ethoxy-6-(4-methylpiperazin-1-yl)cinnoline-3-carboxamide]
> 8.52 | CCOc1cc2nnc(C(N)=O)c(Nc3ccc(C)cc3F)c2cc1N1CCN(C)CC1 [Example 10, 7-Ethoxy-4-[(2-fluoro-4-methyl-phenyl)amino]-6-(4-methylpiperazin-1-yl)cinnoline-3-carboxamide]
> 8.52 | COCCOc1cc2nnc(C(N)=O)c(Nc3cc(C)ccc3F)c2cc1N1CCN(C)CC1 [Example 19, 4-[(2-Fluoro-5-methylphenyl)amino]-7-(2-methoxyethoxy)-6-(4-methylpiperazin-1-yl)cinnoline-3-carboxamide]
> 8.52 | COc1cc2nnc(C(N)=O)c(Nc3ccc(F)cc3F)c2cc1N1CCN(C)CC1 [Example 20, 4-[(2,4-Difluorophenyl)amino]-7-methoxy-6-(4-methylpiperazin-1-yl)cinnoline-3-carboxamide]
> 8.52 | COCCOc1cc2nnc(C(N)=O)c(Nc3cccc(Cl)c3F)c2cc1N1CCN(C)CC1 [Example 21, 4-[(3-Chloro-2-fluorophenyl)amino]-7-(2-methoxyethoxy)-6-(4-methylpiperazin-1-yl)cinnoline-3-carboxamide]
> 8.52 | COCCOc1cc2nnc(C(N)=O)c(Nc3ccc(F)cc3F)c2cc1N1CCN(C(C)C)CC1 [Example 24, 4-[(2,4-Difluorophenyl)amino]-6-(4-isopropylpiperazin-1-yl)-7-(2-methoxyethoxy)cinnoline-3-carboxamide]
> 8.52 | CCOc1cc2nnc(C(N)=O)c(Nc3ccc(C)cc3F)c2cc1N1CCN(C(C)C)CC1 [Example 25, 7-Ethoxy-4-[(2-fluoro-4-methylphenyl)amino]-6-(4-isopropylpiperazin-1-yl)cinnoline-3-carboxamide]
7.29 | COc1cc2nnc(C(N)=O)c(Nc3ccc(C)cc3F)c2cc1-c1ccncc1 [Example 26, 4-[(2-Fluoro-4-methylphenyl)amino]-7-methoxy-6-pyridin-4-ylcinnoline-3-carboxamide]
> 8.52 | CCOc1cc2nnc(C(N)=O)c(Nc3ccc(C)cc3F)c2cc1N1C[C@@H](C)N[C@@H](C)C1 [Example 28, 6-[(3R,5S)-3,5-Dimethylpiperazin-1-yl]-7-ethoxy-4-[(2-fluoro-4-methylphenyl)amino]cinnoline-3-carboxamide]
